Assay results as given in ChEMBL document CHEMBL2074130, “Reversal of breast cancer resistance protein-mediated drug resistance by estrogen antagonists and agonists” (Mol Cancer Ther, 2003).

biological target: T1, Broad substrate specificity ATP-binding cassette transporter ABCG2 (Homo sapiens, UniProt Q9UNQ0); assay: TP_TRANSPORTER: drug resistance in BCRP-expressing K562 cells; format: functional, cell-based
T1 sequence (Q9UNQ0 whole entry): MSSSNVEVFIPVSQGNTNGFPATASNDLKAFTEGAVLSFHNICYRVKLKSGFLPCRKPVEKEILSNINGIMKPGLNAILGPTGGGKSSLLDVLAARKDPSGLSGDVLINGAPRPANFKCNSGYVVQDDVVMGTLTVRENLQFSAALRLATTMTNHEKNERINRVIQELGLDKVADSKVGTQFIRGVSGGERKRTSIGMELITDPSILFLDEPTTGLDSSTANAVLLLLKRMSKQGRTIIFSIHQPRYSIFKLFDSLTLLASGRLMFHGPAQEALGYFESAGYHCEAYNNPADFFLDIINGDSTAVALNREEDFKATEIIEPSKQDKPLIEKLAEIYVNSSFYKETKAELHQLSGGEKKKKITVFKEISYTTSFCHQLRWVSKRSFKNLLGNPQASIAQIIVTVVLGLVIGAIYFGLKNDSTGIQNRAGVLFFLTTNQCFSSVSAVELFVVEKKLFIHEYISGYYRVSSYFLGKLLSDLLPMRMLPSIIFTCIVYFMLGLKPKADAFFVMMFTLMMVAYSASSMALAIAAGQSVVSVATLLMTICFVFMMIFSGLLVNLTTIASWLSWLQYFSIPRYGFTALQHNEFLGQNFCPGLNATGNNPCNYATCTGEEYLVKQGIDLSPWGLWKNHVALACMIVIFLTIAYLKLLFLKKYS

Row | Structure (SMILES) | Activity
1 | CCc1c2c(nc3ccc(O)cc13)-c1cc3c(c(=O)n1C2)COC(=O)[C@]3(O)CC [7-ETHYL-10-HYDROXYCAMPTOTHECIN] | substrate []
2 | O=C1c2c(O)ccc(O)c2C(=O)c2c(NCCNCCO)ccc(NCCNCCO)c21 [MITOXANTRONE] | substrate []
3 | CC[C@@]1(O)C(=O)OCc2c1cc1n(c2=O)Cc2cc3c(CN(C)C)c(O)ccc3nc2-1 [TOPOTECAN] | substrate []

biological target: T1, Broad substrate specificity ATP-binding cassette transporter ABCG2; assay: TP_TRANSPORTER: inhibition of topotecan uptake in BCRP-expressing K562 cells; format: functional, cell-based

Row | Structure (SMILES) | Activity
4 | CCC(=O)Oc1ccc(/C(CC)=C(\CC)c2ccc(OC(=O)CC)cc2)cc1 [DIETHYLSTILBESTROL DIPROPIONATE] | inhibitor []
5 | CC/C(=C(/CC)c1ccc(O)cc1)c1ccc(O)cc1 [DIETHYLSTILBESTROL] | inhibitor []
6 | C[C@]12CC[C@@H]3c4ccc(O)cc4CC[C@H]3[C@@H]1CCC2=O [ESTRONE] | inhibitor []

Continued, values first:

Row | Activity | Structure (SMILES)
7 | inhibitor [] | CC/C(=C(/c1ccc(OCCN(C)C)cc1)c1ccc(OCc2ccc([N+](=O)[O-])cc2)cc1)c1ccccc1
8 | inhibitor [] | CC/C(=C(\c1ccc(O)cc1)c1ccc(OCCNC)cc1)c1ccc(C(C)CO)cc1 (configuration not stated)
9 | inhibitor [] | CC/C(=C(\c1ccc(O)cc1)c1ccc(OCCN(C)C)cc1)c1ccc(OC)cc1
10 | inhibitor [] | CC/C(=C(\c1ccc(O)cc1)c1ccc(OCCN(C)C)cc1)c1ccc(OCc2ccccc2)cc1
11 | inhibitor [] | CC/C(=C(/c1ccc(OCCN(C)C)cc1)c1ccc(OCc2ccccc2)cc1)c1ccccc1
12 | inhibitor [] | CC/C(=C(\c1ccc(O)cc1)c1ccc(OCCN(C)C)cc1)c1ccc(C(C)C)cc1 [MIPROXIFENE]
